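48-hour exposure; five concentrations; linearly interpolated endpoints. GI50 marks 50% less growth. At the TGI there is no net growth.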
Assays:
Assay in all cases: NCI-60 cell line screen, 48 h
OVCAR-3 ovarian = tested on: OVCAR-3 ovarian
HOP-92 NSCLC = tested on: HOP-92 NSCLC
TK-10 renal = tested on: TK-10 renal
SK-MEL-28 melanoma = tested on: SK-MEL-28 melanoma
U251 CNS = tested on: U251 CNS
SF-539 CNS = tested on: SF-539 CNS
HS 578T breast = tested on: HS 578T breast
SNB-75 CNS = tested on: SNB-75 CNS
HL-60(TB) leukemia = tested on: HL-60(TB) leukemia
SF-268 CNS = tested on: SF-268 CNS
EKVX NSCLC = tested on: EKVX NSCLC
SK-OV-3 ovarian = tested on: SK-OV-3 ovarian
HT29 colon = tested on: HT29 colon
MALME-3M melanoma = tested on: MALME-3M melanoma
MDA-MB-435 = tested on: MDA-MB-435
KM12 colon = tested on: KM12 colon
MDA-MB-231 breast = tested on: MDA-MB-231 breast
MOLT-4 leukemia = tested on: MOLT-4 leukemia
NCI-H460 lung = tested on: NCI-H460 lung
SK-MEL-2 melanoma = tested on: SK-MEL-2 melanoma
A498 renal = tested on: A498 renal
SN12C renal = tested on: SN12C renal
COLO 205 colon = tested on: COLO 205 colon
LOX IMVI melanoma = tested on: LOX IMVI melanoma
HCT-15 colon = tested on: HCT-15 colon
HOP-62 NSCLC = tested on: HOP-62 NSCLC
IGROV1 ovarian = tested on: IGROV1 ovarian
HCT-116 colon = tested on: HCT-116 colon
RPMI-8226 leukemia = tested on: RPMI-8226 leukemia
SW-620 colon = tested on: SW-620 colon
NCI-H522 lung = tested on: NCI-H522 lung
M14 melanoma = tested on: M14 melanoma
OVCAR-4 ovarian = tested on: OVCAR-4 ovarian
RXF 393 renal = tested on: RXF 393 renal
SR leukemia = tested on: SR leukemia
UACC-257 melanoma = tested on: UACC-257 melanoma
A549 NSCLC = tested on: A549 NSCLC
T-47D breast = tested on: T-47D breast
CAKI-1 renal = tested on: CAKI-1 renal
SNB-19 CNS = tested on: SNB-19 CNS
OVCAR-8 ovarian = tested on: OVCAR-8 ovarian
UO-31 renal = tested on: UO-31 renal
ACHN renal = tested on: ACHN renal
786-0 renal = tested on: 786-0 renal
SK-MEL-5 melanoma = tested on: SK-MEL-5 melanoma
NCI-H226 lung = tested on: NCI-H226 lung
K-562 leukemia = tested on: K-562 leukemia
DU-145 prostate = tested on: DU-145 prostate
CCRF-CEM leukemia = tested on: CCRF-CEM leukemia
BT-549 breast = tested on: BT-549 breast
SF-295 CNS = tested on: SF-295 CNS

## CCOC(=O)c1c2c(n(Cc3ccccc3)c1C)-c1nc[nH]c1C(=O)C2=O
OVCAR-3 ovarian
  GI50: 13.9 µM
  TGI: 26.8 µM
HOP-92 NSCLC
  GI50: 0.0891 µM
  TGI: 18.9 µM
TK-10 renal
  GI50: 16.2 µM
  TGI: 31.3 µM
SK-MEL-28 melanoma
  GI50: 19.3 µM
  TGI: 34.1 µM
U251 CNS
  GI50: 14.7 µM
  TGI: 27.8 µM
SF-539 CNS
  GI50: 17.7 µM
  TGI: 31.9 µM
HS 578T breast
  GI50: 29.3 µM
  TGI: 88.1 µM
SNB-75 CNS
  GI50: 4.13 µM
  TGI: 16.2 µM
HL-60(TB) leukemia
  GI50: 2.61 µM
  TGI: 10.3 µM
SF-268 CNS
  GI50: 17.1 µM
  TGI: 31.2 µM
EKVX NSCLC
  GI50: 17.8 µM
  TGI: 32 µM
SK-OV-3 ovarian
  GI50: 19.5 µM
  TGI: 33.6 µM
HT29 colon
  GI50: 28.9 µM
  TGI: 76.4 µM
MALME-3M melanoma
  GI50: 11.3 µM
  TGI: 23.9 µM
MDA-MB-435
  GI50: 16.9 µM
  TGI: 31.3 µM
KM12 colon
  GI50: 13.9 µM
  TGI: 27.7 µM
MDA-MB-231 breast
  GI50: 13.1 µM
  TGI: 28.3 µM
MOLT-4 leukemia
  GI50: 2.84 µM
  TGI: 10.3 µM
NCI-H460 lung
  GI50: 11.2 µM
  TGI: 23.2 µM
SK-MEL-2 melanoma
  GI50: 17.7 µM
  TGI: 32.2 µM
A498 renal
  GI50: 16.3 µM
  TGI: 30.1 µM
SN12C renal
  GI50: 16.4 µM
  TGI: 30 µM
COLO 205 colon
  GI50: 20.2 µM
  TGI: 35.1 µM
LOX IMVI melanoma
  GI50: 14.9 µM
  TGI: 28.1 µM
HCT-15 colon
  GI50: 14.8 µM
  TGI: 29.1 µM
HOP-62 NSCLC
  GI50: 18.6 µM
  TGI: 33.2 µM
IGROV1 ovarian
  GI50: 16.7 µM
  TGI: 30.6 µM
HCT-116 colon
  GI50: 16 µM
  TGI: 30.4 µM
RPMI-8226 leukemia
  GI50: 1.1 µM
  TGI: 10.7 µM
SW-620 colon
  GI50: 20.5 µM
  TGI: 41.8 µM
NCI-H522 lung
  GI50: 15 µM
  TGI: 28.8 µM
M14 melanoma
  GI50: 21.4 µM
  TGI: 37.9 µM
OVCAR-4 ovarian
  GI50: 13.5 µM
  TGI: 26.3 µM
RXF 393 renal
  GI50: 11.2 µM
  TGI: 23.2 µM
SR leukemia
  GI50: 1.29 µM
  TGI: 3.6 µM
UACC-257 melanoma
  GI50: 16.4 µM
  TGI: 30 µM
A549 NSCLC
  GI50: 11.8 µM
  TGI: 25.9 µM
T-47D breast
  GI50: 11.4 µM
  TGI: 30.7 µM
CAKI-1 renal
  GI50: 18.5 µM
  TGI: 38.5 µM
SNB-19 CNS
  GI50: 17 µM
  TGI: 30.7 µM
OVCAR-8 ovarian
  GI50: 14.8 µM
  TGI: 28 µM
UO-31 renal
  GI50: 14.7 µM
  TGI: 28.4 µM
ACHN renal
  GI50: 14.8 µM
  TGI: 27.9 µM
786-0 renal
  GI50: 18.1 µM
  TGI: 32.1 µM
SK-MEL-5 melanoma
  GI50: 15.9 µM
  TGI: 29.8 µM
NCI-H226 lung
  GI50: 20.9 µM
  TGI: 47.2 µM
K-562 leukemia
  GI50: 3.08 µM
  TGI: 19.1 µM
DU-145 prostate
  GI50: 9.83 µM
  TGI: 21.5 µM
CCRF-CEM leukemia
  GI50: 1.57 µM
  TGI: 7.87 µM
BT-549 breast
  GI50: 17 µM
  TGI: 31.1 µM
SF-295 CNS
  GI50: 15.3 µM
  TGI: 30.9 µM
